Source: patent US10988477B2 (Merck Patent GmbH, priority 2018, dated 2021)
pIC50, pKi: −log10 of the molar value.

Tests used:
[1] = target: GCN2 kinase (Homo sapiens, UniProt Q9P2K8); assay: GCN2 enzyme inhibition assay (Transcreener ADP2 fluorescence polarization); type: biochemical; details: compounds of Formula II; 280 μM ATP, 4 nM GCN2 kinase
How it was run: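 Run at 25 °C in 25 mM Tris-HCl pH 7.5, 50 mM NaCl, 10 mM MgCl2, 1 mM DTT with 4 nM GCN2, 280 μM ATP and 200 μM (RS)7 peptide; compound (0–8 μM final) preincubated 10 min, reaction 1 h. ADP read by antibody/tracer FP; IC50 and Ki(app) from tight-binding fit.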

[2] = target: intracellular GCN2 (phosphorylation of the GCN2 substrate eIF2α) (Homo sapiens, UniProt Q9P2K8); assay: GCN2 cellular inhibition assay (AlphaScreen SureFire P-eIF2α Ser51, borrelidin-treated U2OS cells); type: cell-based; details: compounds of Formula II; biomarker assay, phosphorylated eIF2α Ser51 in borrelidin-treated U2OS cells
Chain of intracellular GCN2 (phosphorylation of the GCN2 substrate eIF2α) (Q9P2K8 whole entry): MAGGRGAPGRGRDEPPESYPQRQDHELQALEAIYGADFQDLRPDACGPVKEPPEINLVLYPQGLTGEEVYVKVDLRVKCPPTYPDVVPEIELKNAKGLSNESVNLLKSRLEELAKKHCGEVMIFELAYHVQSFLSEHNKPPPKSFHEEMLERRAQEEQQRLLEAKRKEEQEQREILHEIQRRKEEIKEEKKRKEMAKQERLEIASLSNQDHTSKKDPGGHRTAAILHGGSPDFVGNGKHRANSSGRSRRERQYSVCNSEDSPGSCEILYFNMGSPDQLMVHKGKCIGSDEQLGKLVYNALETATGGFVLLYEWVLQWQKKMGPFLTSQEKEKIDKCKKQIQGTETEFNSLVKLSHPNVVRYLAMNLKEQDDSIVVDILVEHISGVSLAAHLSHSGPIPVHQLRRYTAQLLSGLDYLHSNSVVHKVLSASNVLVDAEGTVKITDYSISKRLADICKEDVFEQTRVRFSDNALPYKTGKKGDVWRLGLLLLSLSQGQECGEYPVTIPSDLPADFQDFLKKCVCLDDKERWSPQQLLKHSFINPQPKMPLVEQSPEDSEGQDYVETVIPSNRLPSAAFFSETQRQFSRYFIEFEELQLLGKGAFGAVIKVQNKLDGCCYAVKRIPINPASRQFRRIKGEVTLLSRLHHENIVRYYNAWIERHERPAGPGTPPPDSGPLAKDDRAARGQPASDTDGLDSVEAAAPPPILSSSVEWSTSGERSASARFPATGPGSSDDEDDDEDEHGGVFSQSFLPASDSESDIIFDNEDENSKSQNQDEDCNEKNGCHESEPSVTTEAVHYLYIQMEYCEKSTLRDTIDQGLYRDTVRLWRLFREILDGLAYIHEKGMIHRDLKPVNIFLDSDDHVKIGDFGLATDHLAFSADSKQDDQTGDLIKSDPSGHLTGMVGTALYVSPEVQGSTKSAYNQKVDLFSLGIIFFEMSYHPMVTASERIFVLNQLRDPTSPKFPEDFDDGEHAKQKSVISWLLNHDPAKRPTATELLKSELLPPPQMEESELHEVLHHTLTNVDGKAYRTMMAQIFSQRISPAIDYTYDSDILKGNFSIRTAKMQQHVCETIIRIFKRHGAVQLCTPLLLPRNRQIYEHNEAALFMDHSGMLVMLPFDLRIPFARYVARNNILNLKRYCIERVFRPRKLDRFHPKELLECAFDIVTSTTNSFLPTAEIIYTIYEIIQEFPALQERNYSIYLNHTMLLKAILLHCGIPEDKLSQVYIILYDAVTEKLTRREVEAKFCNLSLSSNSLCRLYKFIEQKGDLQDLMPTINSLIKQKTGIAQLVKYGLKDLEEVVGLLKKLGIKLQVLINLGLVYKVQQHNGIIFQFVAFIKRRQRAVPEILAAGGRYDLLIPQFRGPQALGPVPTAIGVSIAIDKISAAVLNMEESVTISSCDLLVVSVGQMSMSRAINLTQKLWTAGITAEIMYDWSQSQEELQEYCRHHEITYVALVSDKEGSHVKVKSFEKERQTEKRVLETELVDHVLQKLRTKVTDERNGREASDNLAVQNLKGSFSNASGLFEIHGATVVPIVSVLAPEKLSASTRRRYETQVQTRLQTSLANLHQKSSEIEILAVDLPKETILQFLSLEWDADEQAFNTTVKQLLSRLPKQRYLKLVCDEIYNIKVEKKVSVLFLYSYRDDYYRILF
How it was run: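 First, U2OS cells are plated and left overnight at 37 °C. Next, compounds (from 40 μM final, 4-fold steps) and 10 μM borrelidin are added for 1 h, cells lysed, and phospho-Ser51 eIF2α detected by AlphaScreen bead sandwich. Inhibition is computed versus borrelidin-only wells.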

Chain of GCN2 kinase (Q9P2K8 whole entry): as above

SMILES | pKi [1] | pIC50 [2]
CS(=O)(=O)NCC1CCCN(c2cc(-c3cnc4ccc(C(F)F)nn34)cc(N3CC4(CNC4)C3)n2)C1 (stereo not drawn) [II-92, N-[[1-[6-(2,6-Diazaspiro[3.3]heptan-2-yl)-4-[6-(difluoromethyl)imidazo[1,2-b]pyridazin-3-yl]-2-pyridyl]-3-piperidyl]methyl]methanesulfonamide] | > 8.00 | 5.30 to 6.30
CC1CN(c2ccnc(-c3cnc4ccc(C(F)F)nn34)c2)CC(CNS(C)(=O)=O)O1 (stereo not drawn) [II-94, N-((4-(2-(6-(Difluoromethyl)imidazo[1,2-b]pyridazin-3-yl)pyridin-4-yl)-6-methylmorpholin-2-yl)methyl)methanesulfonamide] | > 8.00 | > 6.30
CS(=O)(=O)NCC1CCCN(c2cc(-c3cnc4ccc(C(F)F)nn34)cc(N3CCNCC3)n2)C1 (stereo not drawn) [II-96, N-((1-(4-(6-(Difluoromethyl)imidazo[1,2-b]pyridazin-3-yl)-6-(piperazin-1-yl)pyridin-2-yl)piperidin-3-yl)methyl)methanesulfonamide] | > 8.00 | 5.30 to 6.30
CN1CCN(c2cc(-c3cnc4ccc(C(F)F)nn34)ccn2)CC1CO (stereo not drawn) [II-97, (4-(4-(6-(Difluoromethyl)imidazo[1,2-b]pyridazin-3-yl)pyridin-2-yl)-1-methylpiperazin-2-yl)methanol] | 6.00 to 8.00 | < 5.30
CS(C)(=O)=NC[C@@H]1CN(c2cc(-c3cnc4ccc(C(F)F)nn34)ccn2)CCO1 [II-102, [(2S)-4-[4-[6-(Difluoromethyl)imidazo[1,2-b]pyridazin-3-yl]-2-pyridyl]morpholin-2-yl]methylimino-dimethyl-oxo-sulfane] | 6.00 to 8.00 | < 5.30
CS(=N)(=O)CCC1CCCN(c2cc(-c3cnc4ccc(C(F)F)nn34)ccn2)C1 (stereo not drawn) [II-104, (2-(1-(4-(6-(Difluoromethyl)imidazo[1,2-b]pyridazin-3-yl)pyridin-2-yl)piperidin-3-yl)ethyl)(imino)(methyl)-λ^6-sulfanone] | 6.00 to 8.00 | < 5.30

The next lines start with the values.

pKi [1] | pIC50 [2] | SMILES
6.00 to 8.00 | 5.30 to 6.30 | CN1CCN(c2cc(-c3cnc4ccc(C(F)F)nn34)ccn2)CC1CNS(C)(=O)=O (stereo not drawn) [II-98, N-((4-(4-(6-(Difluoromethyl)imidazo[1,2-b]pyridazin-3-yl)pyridin-2-yl)-1-methylpiperazin-2-yl)methyl)methanesulfonamide]
> 8.00 | 5.30 to 6.30 | CS(=O)(=O)NCC1COCCN(c2cc(-c3cnc4ccc(C(F)F)nn34)ccn2)C1 (stereo not drawn) [II-99, N-((4-(4-(6-(Difluoromethyl)imidazo[1,2-b]pyridazin-3-yl)pyridin-2-yl)-1,4-oxazepan-6-yl)methyl)methanesulfonamide]
> 8.00 | 5.30 to 6.30 | CS(=O)(=O)N1CC2(CCCN(c3cncc(-c4cnc5ccc(C(F)F)nn45)c3)C2)C1 [II-101, 6-(Difluoromethyl)-3-(5-(2-(methylsulfonyl)-2,6-diazaspiro[3.5]nonan-6-yl)pyridin-3-yl)imidazo[1,2-b]pyridazine]
> 8.00 | > 6.30 | CS(=O)(=O)NCC1CN(c2ccnc(-c3cnc4ccc(C(F)F)nn34)c2)CCC1(F)F (stereo not drawn) [II-103, N-((1-(2-(6-(Difluoromethyl)imidazo[1,2-b]pyridazin-3-yl)pyridin-4-yl)-4,4-difluoropiperidin-3-yl)methyl)methanesulfonamide]
> 8.00 | 5.30 to 6.30 | CC(NS(C)(=O)=O)C1CN(c2ccnc(-c3cnc4ccc(C(F)F)nn34)c2)CCO1 (stereo not drawn) [II-105, N-(1-(4-(2-(6-(Difluoromethyl)imidazo[1,2-b]pyridazin-3-yl)pyridin-4-yl)morpholin-2-yl)ethyl)methanesulfonamide]
> 8.00 | 5.30 to 6.30 | CC(NS(C)(=O)=O)C1CN(c2cc(-c3cnc4ccc(C(F)F)nn34)ccn2)CCO1 (stereo not drawn) [II-106, N-(1-(4-(4-(6-(Difluoromethyl)imidazo[1,2-b]pyridazin-3-yl)pyridin-2-yl)morpholin-2-yl)ethyl)methanesulfonamide]
